Experimental data from PMC6863536, “Natural compounds as angiogenic enzyme thymidine phosphorylase inhibitors: In vitro biochemical inhibition, mechanistic, and in silico modeling studies” (PLoS ONE, 2019).
Entries after “also recorded” stand apart in the source; their conditions may differ. Read-outs that look alike come from different tables or passages of the source.

Experiments:
[1] = tested on: mouse fibroblast (3T3) cell line; test: In vitro MTT cytotoxicity assay; format: cell-based; settings: 3T3 cells, 48 hrs incubation
Description: (§1) The reduction of MTT can only occur in metabolically active cell, so the enzyme activity is actually a measure of cell viability.
(§2) Briefly, the mouse fibroblast cells (3T3) were cultured in DMEM media containing 5% FBS, 100 IU/ mL penicillin, and 100 μg/ mL streptomycin. Cell suspension (5×10^4cells/ mL) was dispensed in flat-bottomed 96-well plates, and incubated at 37°C and with 5% CO2. After the overnight incubation, old media was aspirated and fresh media containing different concentrations of compounds (prepared in DMSO) were added, and plate was further incubated for 48 hrs. After that, MTT dye (0.5 mg/ mL) was added into each well, and the plate was further incubated for 4 hrs. Following this, DMSO (100 μL) was added into each well, and the level of MTT reduction to formazan with in the cells was calculated by taking the absorbance at 540 nm using a micro plate reader (Spectra Max plus, Molecular Devices, CA, USA).
(§3) Cellular viability was measured for 10 min, at 570 nm on microtiter plate reader. Changes in absorbance upon addition of test compounds were analyzed with the SoftMax Pro 4.8 software which was purchased from Molecular Devices, CA, USA. Percent inhibition was calculated using the formula mentioned earlier.
(§4) It was calculated by measuring the effects of different concentrations of inhibitors on the growth of cells. EZ-Fit, Enzyme kinetics software was used to deduce the IC50 values.

[2] = target: T1, thymidine phosphorylase (TP), recombinant E. coli TP enzyme (Escherichia coli, UniProt P07650); test: Thymidine phosphorylase inhibition assay (spectrophotometric); format: biochemical; settings: 1.5 mM thymidine, 30°C, pH 7.0, 290 nm, test compounds screened at 500 μM
T1 construct: purchased Sigma Aldrich, USA
Description: In the current study, we have used commercially available recombinant E. coli TP enzyme, as human TP is not easily accessible.
Thymidine phosphorylase inhibition assay was carried out spectrophotometrically. Briefly, 0.058 U of TP enzyme (E.C. No. 2.4.2.4, E. coli) was incubated with 500 μM of test compounds at 30°C for 10 minutes. After that 1.5 mM of substrate thymidine was added to 96-well plate, and changes in absorbance were monitored for 10 minutes at 290 nm in microtiter plate reader (Spectramax, M5, Molecular Devices, CA, USA). Enzyme and substrate solution were prepared in 50 mM phosphate buffer of pH 7.0, while test compounds were prepared in DMSO (final concentration 4.5%).
Enzyme activity was measured under steady-state conditions by observing changes in absorbance for 10 min (at 290 nm) on microtiter plate reader (Spectra Max M5, Molecular Devices, CA, USA). Changes in absorbance upon addition of test compounds were analyzed with the SoftMax Pro 4.8 software which was purchased from Molecular Devices, CA, USA. To calculate the percent inhibition, following formula was used: % Inhibition = 100-Absorbance of test compound/Absorbance of control×100
Inhibitory potential of test compounds is represented in Figs 1–4 as IC50 value (Inhibitory concentration). […] It was calculated by measuring the effects of different concentrations of inhibitors on the degradation of thymidine. EZ-Fit, Enzyme kinetics software (purchased from Perrella Scientific, Inc., USA) was used to deduce the IC50 values.

[3] = target: T2, thymidine phosphorylase (TP) enzyme (Escherichia coli, UniProt P07650); test: Mechanistic (kinetic) studies on TP, Lineweaver-Burk plot and secondary re-plot; format: biochemical, E. coli; settings: for Type of inhibition: Lineweaver-Burk plot, substrate thymidine
T2 construct: purchased Sigma Aldrich, USA
Description: In mechanistic studies, TP enzyme was incubated with different concentrations of inhibitors at 30°C for 10 min. Reaction was then initiated by adding four different concentrations of substrate, i.e. thymidine (0.1875–1.5 mM). Enzyme activity was measured under steady state conditions by measuring changes in absorbance for another 10 min at 30°C at 290 nm, on microtiter plate reader (Spectramax, M5, Molecular Devices, CA, USA). Every experiment is performed in triplicate.
Lineweaver-Burk plot was used to determine the type of inhibition, where the reciprocal of rate of the reaction were plotted against the reciprocal of substrate concentration. Dissociation constant (Ki) were determined by secondary re-plot of Lineweaver-Burk plots. Kinetic data was analysed by GraFit 7 data analysis software (purchased from Erithacus Software Limited, UK).

[4] = In vitro MTT cytotoxicity assay; format: cell-based, mouse; settings: mouse, 3T3 mouse fibroblast cells, 3T3 cells, 48 hrs incubation, read-out: Cytotoxicity IC50 (μM ± SD)
Description: as §1, §2, §3, §4

[5] = read-out: TP Inhibition IC50 (μM ± SEM)
[6] = thymidine 0.1875–1.5 mM, 30°C, secondary re-plot of Lineweaver-Burk plot, read-out: Ki ± SEM (dissociation constant)

T1 sequence (P07650 whole entry): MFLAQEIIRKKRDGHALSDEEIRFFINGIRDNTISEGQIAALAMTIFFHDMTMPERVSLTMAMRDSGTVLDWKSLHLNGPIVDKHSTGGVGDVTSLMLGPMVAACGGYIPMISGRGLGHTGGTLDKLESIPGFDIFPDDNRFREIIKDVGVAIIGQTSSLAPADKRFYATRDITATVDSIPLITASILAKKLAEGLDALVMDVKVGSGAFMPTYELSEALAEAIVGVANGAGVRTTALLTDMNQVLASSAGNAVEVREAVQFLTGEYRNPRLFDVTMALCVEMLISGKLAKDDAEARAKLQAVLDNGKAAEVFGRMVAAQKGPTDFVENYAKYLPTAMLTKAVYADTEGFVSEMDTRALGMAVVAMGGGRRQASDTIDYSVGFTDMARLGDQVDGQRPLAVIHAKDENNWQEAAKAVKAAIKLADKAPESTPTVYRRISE
T2 sequence (P07650 whole entry): as above

SMILES	IC50 [2, 5]	Type of inhibition [3]	Ki [3, 6]	other results
C[C@@H]1C[C@@H]([C@H](O)CC2CC(=O)NC(=O)C2)C(=O)[C@@H](C)C1 [Cyclohexamide, cycloheximide, reference compound]	–	–	–	IC50 ([1]; read-out: Cytotoxicity IC50 (μM ± SD)): 0.2 ± 0.1 µM
O=C(O)c1cc(O)c(O)c(O)c1 [Compound 16, Gallic acid]	–	–	–	TP Inhibition IC50 (μM ± SEM) [2]: inactive
O=c1cc(-c2ccccc2)oc2cc(O)cc(O)c12 [Compound 4]	–	–	–	TP Inhibition IC50 (μM ± SEM) [2]: inactive
O=c1ccc2ccccc2o1 [Compound 6, coumarin]	420 ± 6.15 µM	Uncompetitive	171 ± 0.001 µM	–
O=c1cc(-c2ccc(O)cc2)oc2cc(O)cc(O)c12 [Compound 3]	–	–	–	TP Inhibition IC50 (μM ± SEM) [2]: inactive
O=c1[nH]c(=O)c2cc[nH]c2[nH]1 [7-Deazaxanthine, 7-deazaxanthine, reference compound]	–	Non-competitive	–	–
O=c1cc(-c2ccccc2)oc2ccccc12 [Compound 1]	195.1 ± 1.1 µM	Uncompetitive	225 ± 0.002 µM	IC50 at 48 h [4]: 29.1 ± 0.61 µM
COc1cc2ccc(=O)oc2cc1O[C@@H]1O[C@H](CO[C@@H]2OC[C@](O)(CO)[C@H]2O)[C@@H](O)[C@H](O)[C@H]1O [Compound 10]	–	Uncompetitive	–	IC50 ([2]; TP Inhibition IC50 (μM ± SEM)): 295.2 ± 2 µM; Ki [3]: 145 ± 0.001 µM
N=C1CCCN1Cc1[nH]c(=O)[nH]c(=O)c1Cl [Tipiracil, tipiracil, reference compound]	0.014 ± 0.002 µM	–	–	–
COc1cc2c(cc1OC)-c1c(OC)c(OC)cc3c1[C@H](C2)N(C)CC3 [Compound 11, Glaucine HBr]	238.5 ± 2.1 µM	Uncompetitive	180 ± 0.01 µM	–
COc1c(O)cc2oc(-c3ccc(O)c(O)c3)c(O)c(=O)c2c1O [Compound 5]	76.8 ± 1.1 µM	Mixed	341.1 ± 0.01 µM	–
COc1cc2ccc(=O)oc2cc1O [Compound 9]	193.4 ± 1 µM	Non-competitive	419 ± 0.001 µM	–
COc1cc(C(=O)O)ccc1O [Compound 17, Vanillic acid]	–	–	–	TP Inhibition IC50 (μM ± SEM) [2]: inactive
COc1cc(O)c2c(=O)cc(-c3c(OC)ccc(O)c3O)oc2c1 [Compound 2]	113 µM	–	–	–
CC1(C)C=Cc2c(ccc3ccc(=O)oc23)O1 [Compound 8]	181.1 ± 0.6 µM	Uncompetitive	162 ± 0.001 µM	–
COc1c2ccoc2cc2oc(=O)ccc12 [Compound 7]	344.2 ± 1.2 µM	–	–	–
C[C@H](Cc1ccc(O)c(O)c1)[C@@H](C)Cc1ccc(O)c(O)c1 [Compound 18, Masoprocol]	44 ± 0.5 µM	competitive inhibitor	25.6 ± 0.008 µM	Cytotoxicity IC50 (μM ± SD) [1]: non-toxic; also recorded: non-cytotoxic
O=C(O)/C=C/c1ccccc1 [Compound 15, Cinnamic acid]	–	–	–	IC50 ([2]; TP Inhibition IC50 (μM ± SEM)): 349.7 ± 1.4 µM
